For nine compounds, Emax results are on record in patent US20090170902A1, “COMPOUNDS WHICH POTENTIATE GLUTAMATE RECEPTOR AND USES THEREOF IN MEDICINE” (priority 2006, published 2009).

SMILES strings stand for the structures.

T1 sequence (P42262 25-883 isoform P42262-2 limits assumed): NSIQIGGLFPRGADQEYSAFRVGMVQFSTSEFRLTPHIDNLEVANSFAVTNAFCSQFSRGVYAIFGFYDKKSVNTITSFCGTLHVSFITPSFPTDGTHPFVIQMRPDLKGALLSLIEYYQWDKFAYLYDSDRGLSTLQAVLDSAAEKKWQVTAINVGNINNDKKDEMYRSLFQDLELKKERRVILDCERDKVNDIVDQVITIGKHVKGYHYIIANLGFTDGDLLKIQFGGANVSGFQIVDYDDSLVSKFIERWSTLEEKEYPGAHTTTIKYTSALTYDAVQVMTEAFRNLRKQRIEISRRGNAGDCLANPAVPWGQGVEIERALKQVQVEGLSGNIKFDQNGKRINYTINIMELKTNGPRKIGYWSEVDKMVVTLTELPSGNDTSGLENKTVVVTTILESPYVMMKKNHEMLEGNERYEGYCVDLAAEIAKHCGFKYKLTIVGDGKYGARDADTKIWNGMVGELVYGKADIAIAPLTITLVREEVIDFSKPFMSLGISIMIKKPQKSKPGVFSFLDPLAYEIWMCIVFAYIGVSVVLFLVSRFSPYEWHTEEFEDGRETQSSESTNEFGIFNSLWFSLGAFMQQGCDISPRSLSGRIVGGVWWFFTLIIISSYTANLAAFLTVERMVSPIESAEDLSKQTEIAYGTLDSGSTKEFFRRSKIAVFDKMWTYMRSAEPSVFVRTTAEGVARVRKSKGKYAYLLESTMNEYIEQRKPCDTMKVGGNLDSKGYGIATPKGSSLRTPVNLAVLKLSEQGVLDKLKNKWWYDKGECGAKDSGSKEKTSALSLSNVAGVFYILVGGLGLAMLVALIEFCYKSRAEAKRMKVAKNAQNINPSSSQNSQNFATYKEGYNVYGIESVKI

The assay concerns the target T1, human GluR2 flip (unedited) AMPA receptor subunit (Homo sapiens, UniProt P42262).
T1 construct: expressed in transfected cells
Nature of the assay: Calcium influx fluorescence assay (FLUO4, FLIPR). Particulars: HEK293; HEK 293 cells expressing human GluR2 flip (unedited); relative to fluorescence increase induced by cyclothiazide at maximum response; read-out: activity relative to cyclothiazide (at its maximal response). The assay is classed as cell-based. As for the experimental part:
384 well plates are prepared containing confluent monolayer of HEK 293 cells either stably expressing or transiently transfected with human GluR2 flip (unedited) AMPA receptor subunit. These cells form functional homotetrameric AMPA receptors. The tissue culture medium in the wells are discarded and the wells are each washed three times with standard buffer (80 μL) for the stable cell line (145 mM NaCl, 5 mM KCl, 1 mM MgCl2, 2 mM CaCl2, 20 mM N-[2-hydroxyethyl]-piperazine-N-[2-ethanesulfonic acid (HEPES), 5.5 mM glucose, pH 7.3) or with a Na-free buffer for the transient transfected cells (145 mM N-methyl-glucamine instead of NaCl). The plates are then incubated for 60 minutes in the dark with 2 μM FLUO4-AM dye (20 μL) (Molecular Probes, Netherlands) at room temperature to allow cell uptake of the FLUO-4AM, which is then converted to FLUO-4 by intracellular esterases which is unable to leave the cell. After incubation each well is washed three times with buffer (80 μL) (30 μL of buffer remained in each well after washing).
Compounds of the invention (or reference compounds such as cyclothiazide) are dissolved in dimethylsulfoxide (DMSO) at a stock concentration of 10 mM. These solutions are further diluted with DMSO using a Biomek FX (Beckman Coulter) in a 384 compound plate. Each dilution (1 μL) is transferred to another compound plate and buffer (50 μL) is added. An agonist stimulus (glutamate) plate is prepared by dissolving sodium glutamate in water to give a concentration of 100 mM. This solution is diluted with buffer to give a final concentration of 500 μM and dispensed into another 384-well plate (50 μL/well) using a Multidrop (Thermolabsystems).
The cell plate is then transferred into a fluorescence imaging plate based reader [such as the FLIPR384 (Molecular Devices)]. A baseline fluorescence reading is taken over a 10 to 240 second period, and then 10 μL from each plate containing a compound of the invention made up in standard buffer solution (in a concentration range from […]) is added (to give a final concentration in the range 30 μM to 3 pM). The fluorescence is read over 5 minute period. 500 μM glutamate solution (10 μL) is added (to give a final concentration of 100 μM). The fluorescence is then read over a 4 minute period. The activities of the compounds of the invention and reference compounds are determined by measuring peak fluorescence after the last addition. The activity is also expressed relative to the fluorescence increase induced by cyclothiazide at their maximum response (i.e. greater than 30 μM).
The assay described above is believed to have an effective limit of detection of a pEC50 in the region of 3.5-4.0 due to the limitations of compound solubility. The pEC50 result is generally considered to be accurate +/−0.3.
Take `CC(C)S(=O)(=O)N[C@@H]1CCO[C@@H]1c1ccc(-c2cccs2)cc1` (relative stereo) [Example 9, N-{cis-2-[4-(2-thienyl)phenyl]tetrahydro-3-furanyl}-2-propanesulfonamide]: the Emax was ≥ 50%.
Consider `CC(C)S(=O)(=O)N[C@@H]1CCO[C@@H]1c1ccc(-c2cncc(F)c2)cc1` (relative stereo) [Example 4, N-{cis-2-[4-(5-fluoro-3-pyridinyl)phenyl]tetrahydro-3-furanyl}-2-propanesulfonamide], for which the Emax was ≥ 50%.
For `Cc1cncc(-c2ccc([C@H]3OCC[C@H]3NS(=O)(=O)C(C)C)cc2)c1` (relative stereo) [Example 5, N-{cis-2-[4-(5-methyl-3-pyridinyl)phenyl]tetrahydro-3-furanyl}-2-propanesulfonamide], the Emax is ≥ 50%.
The figure for `CC(C)S(=O)(=O)N[C@@H]1CCO[C@@H]1c1ccc(-c2ccc(F)cn2)cc1` (relative stereo) [Example 3, N-{cis-2-[4-(5-fluoro-2-pyridinyl)phenyl]tetrahydro-3-furanyl}-2-propanesulfonamide] is ≥ 50%; for `Cc1ccc(-c2ccc([C@H]3OCC[C@H]3NS(=O)(=O)C(C)C)cc2)cn1` (relative stereo) [Example 2, N-{cis-2-[4-(6-methyl-3-pyridinyl)phenyl]tetrahydro-3-furanyl}-2-propanesulfonamide] it is ≥ 50%; for `CC(C)S(=O)(=O)N[C@@H]1CCO[C@@H]1c1ccc(-c2ccc(C#N)cc2)cc1` (relative stereo) [Example 7, N-[cis-2-(4′-cyano-4-biphenylyl)tetrahydro-3-furanyl]-2-propanesulfonamide] it is ≥ 50%.
The value for `CC(C)S(=O)(=O)N[C@@H]1CCO[C@@H]1c1ccc(-c2ccc(F)cc2)cc1` (relative stereo) [Example 6, N-[cis-2-(4′-fluoro-4-biphenylyl)tetrahydro-3-furanyl]-2-propanesulfonamide] was ≥ 50%.
With `CC(C)S(=O)(=O)N[C@@H]1CCO[C@@H]1c1ccc(-c2ccc(F)nc2)cc1` (relative stereo) [Example 1, N-{cis-2-[4-(6-fluoro-3-pyridinyl)phenyl]tetrahydro-3-furanyl}-2-propanesulfonamide], the Emax is ≥ 50%.
For `CC(=O)c1cccc(-c2ccc([C@H]3OCC[C@H]3NS(=O)(=O)C(C)C)cc2)c1` (relative stereo) [Example 8, N-[cis-2-(3′-acetyl-4-biphenylyl)tetrahydro-3-furanyl]-2-propanesulfonamide], the Emax is ≥ 50%.
